Assay [1] concerns the target His-GST-TVMV-hRIPK1 (1-324) (Homo sapiens (Human), UniProt Q13546). Description: RIPK1 HTRF Binding Assay. To be noted: read-out: RIPK1 HTRF (IC50); FRET probe displacement, 1 h at rt.
Assay [2] has as its system MLKL phosphorylation in HT29-L23 human colorectal adenocarcinoma cells. Description: MLKL Phosphorylation High-Content Assay. The assay is classed as cell-based. As to conditions: necroptosis induced with TNFα, SMAC mimetic and Z-VAD, 6 h, read-out: pMLKL (IC50). In a few lines:
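HT29-L23 cells were induced to necroptosis with TNFα (35 ng/mL), SMAC mimetic (700 nM) and Z-VAD (140 nM) for 6 h at 37 °C. Phospho-MLKL (S358) immunofluorescence was imaged and quantified per cell; maximal inhibition set by Nec-1s (6.25 μM), and IC50/Ymax from 4-parameter logistic fit.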

Each structure is given as a SMILES string. Counter-ions that a name gives are not always drawn. Like-named read-outs stand apart in the source and are kept apart here.

His-GST-TVMV-hRIPK1 (1-324), sequence (Q13546 1-324): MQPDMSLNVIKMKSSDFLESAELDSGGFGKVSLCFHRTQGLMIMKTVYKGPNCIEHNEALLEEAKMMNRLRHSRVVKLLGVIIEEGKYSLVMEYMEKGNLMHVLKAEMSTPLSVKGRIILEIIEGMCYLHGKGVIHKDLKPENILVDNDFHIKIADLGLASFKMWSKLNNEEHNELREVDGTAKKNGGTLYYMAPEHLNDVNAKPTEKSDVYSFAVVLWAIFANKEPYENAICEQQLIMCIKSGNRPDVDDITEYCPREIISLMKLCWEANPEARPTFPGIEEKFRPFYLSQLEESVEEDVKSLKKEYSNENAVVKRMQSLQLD

Regarding `CNC(=O)c1n[nH]c2cc(-c3cc(C(=O)NC(C)c4cccc(OC(F)(F)F)c4)c(C)nc3C)ccc12` (single isomer, unassigned) [Example 163, 6-[2,6-dimethyl-5-({1-[3-(trifluoromethoxy)phenyl]-ethyl}carbamoyl)pyridin-3-yl]-N-methyl-1H-indazole-3-carboxamide], the figures for the IC50 in assay [1] and in assay [2] were 47 nM and 180 nM, respectively.
For the compound `[2H]C([2H])([2H])NC(=O)c1n[nH]c2cc(-c3cnc(OC)c(C(=O)NCc4ccccc4OC(F)(F)F)c3)ccc12` [Example 153], the results for the IC50 in assay [1] and in assay [2] (Homo sapiens) were 2.9 nM and 6.3 nM, respectively.
In the case of `CNC(=O)c1n[nH]c2cc(-c3cnc(OC)c(C(=O)NC4CCCC(C(=O)N5CC(F)(F)C5)C4)c3)ccc12` (centres unmarked) [Example 132, 6-(5-{[3-(3,3-difluoroazet-idine-1-carbonyl)cyclohexyl]-carbamoyl}-6-methoxypyridin-3-yl)-N-methyl-1H-indazole-3-carboxamide, TFA], the IC50 in assay [1] is 35 nM; in assay [2], 140 nM.
Turning to `CCCN(C)C(=O)C1CCCC(NC(=O)c2cc(-c3ccc4c(C(=O)NC)n[nH]c4c3)cnc2OC)C1` (centres unmarked) [Example 100, 6-[6-methoxy-5-({3-[methyl-(propyl)carbamoyl]cyclo-hexyl}carbamoyl)pyridin-3-yl]-N-methyl-1H-indazole-3-carboxamide], the IC50 in assay [1] was 18 nM; in assay [2] (Homo sapiens) it was 63 nM.
In the same order, the values of `CNC(=O)c1n[nH]c2cc(-c3cnc(OC)c(C(=O)NCC4CCCCC4)c3)ccc12` [Example 138, 6-{5-[(cyclohexylmethyl)-carbamoyl]-6-methoxy-pyridin-3-yl}-N-methyl-1H-indazole-3-carboxamide] are 12 nM and 89 nM.
In the same order, the values of `COc1ccccc1N1CC(NC(=O)c2n[nH]c3cc(-c4cnc(OC)c(C(=O)NCc5ccccc5OC(F)(F)F)c4)ccc23)CC1=O` (centres unmarked) [Example 186, 6-[6-methoxy-5-({[2-(trifluoro-methoxy)phenyl]methyl}-carbamoyl)pyridin-3-yl]-N-[1-(2-methoxyphenyl)-5-oxo-pyrrolidin-3-yl]-1H-indazole-3-carboxamide] are 95 nM and 13 nM.
For `[2H]C([2H])([2H])Oc1ncc(-c2ccc3c(C(=O)NC([2H])([2H])C([2H])([2H])[2H])n[nH]c3c2)cc1C(=O)NC(C)c1cc(F)ccc1C(F)(F)F` (centres unmarked) [Example 228, N-[(1,1,2,2,2-deutero)ethyl]-6-[5-({1-[5-fluoro-2-(trifluoromethyl)-phenyl]ethyl}carbamoyl)-6-(deutero)methoxypyridin-3-yl]-1H-indazole-3-carboxamide], in that order: 58 nM and 51 nM.
As for `[2H]C([2H])([2H])Oc1ncc(-c2ccc3c(C(=O)NC4CC4)n[nH]c3c2)cc1C(=O)NC1CCCC(C(=O)N2CCCC2)C1` (centres unmarked) [Example 204], the half-inhibitory concentration (IC50) amounted to 12 nM in assay [1] and 84 nM in assay [2] (Homo sapiens).
In the same order, the values of `[2H]C([2H])([2H])Oc1ncc(-c2ccc3c(C(=O)NCC4CC4)n[nH]c3c2)cc1C(=O)NC(C)c1cccc(OC(F)(F)F)c1` (centres unmarked) [Example 166, N-(cyclopropylmethyl)-6-[6-(deutero)methoxy-5-({1-[3-(tri-fluoromethoxy)phenyl]ethyl}-carbamoyl)pyridin-3-yl]-1H-indazole-3-carboxamide] are 83 nM and 34 nM.
As to `COc1ncc(-c2ccc3c(C(=O)NC4CC4)n[nH]c3c2)cc1C(=O)N[C@@H](C)c1cc(OC(F)(F)F)ccc1F` [Example 206, N-cyclopropyl-6-(5-{[(1S)-1-[2-fluoro-5-(trifluoromethoxy)-phenyl](2,2,2-deutero)ethyl]-carbamoyl}-6-(deutero)methoxy-pyridin-3-yl)-1H-indazole-3-carboxamide], the IC50 in assay [1] was determined as 220 nM; in assay [2], 3.8 nM.
For `CNC(=O)c1n[nH]c2cc(-c3cnc(C)c(C(=O)N[C@H]4CC[C@@H](c5ccccc5)C4)c3)ccc12` [Example 154, N-methyl-6-(6-methyl-5-{[(1S,3R)-3-phenylcyclopentyl]carbamoyl}-pyridin-3-yl)-1H-indazole-3-carbox-amide], in that order: 2.9 nM and 58 nM.
As for `CNC(=O)c1n[nH]c2cc(-c3cnc(OC)c(C(=O)NCc4ccccc4OCC(F)(F)F)c3)ccc12` [Example 75, 6-[6-methoxy-5-({[2-(2,2,2-trifluoroethoxy)phenyl]-methyl}carbamoyl)pyridin-3-yl]-N-methyl-1H-indazole-3-carboxamide, TFA], the figures for the IC50 in assay [1] and in assay [2] were 1.8 nM and 4.4 nM, respectively.
For `CNC(=O)c1n[nH]c2cc(-c3cnc(OC)c(C(=O)NCCCOc4ccccc4)c3)ccc12` [Example 55, 6-{6-methoxy-5-[(3-phenoxy-propyl)carbamoyl]pyridin-3-yl}-N-methyl-1H-indazole-3-carboxamide], the IC50 in assay [1] was 12 nM; in assay [2] (Homo sapiens), 27 nM.
In the same order, the values of `[2H]C([2H])([2H])Oc1ncc(-c2ccc3c(C(=O)NC4CC4)n[nH]c3c2)cc1C(=O)N[C@@H]1CN(C(=O)C2CC(F)(F)C2)C[C@@H]1F` [Example 190, N-cyclopropyl-6-(5-{[(3R,4S)-1-(3,3-difluorocyclobutanecarbonyl)-4-fluoropyrrolidin-3-yl]carbamoyl}-6-(deutero)methoxypyridin-3-yl)-1H-indazole-3-carboxamide] are 100 nM and 290 nM.
With `CNC(=O)c1n[nH]c2cc(-c3cnc(OC)c(C(=O)NCc4cccnc4OCC4CCC4)c3)ccc12` [Example 112, 6-[5-({[2-(cyclobutylmeth-oxy)pyridin-3-yl]methyl}-carbamoyl)-6-methoxypyridin-3-yl]-N-methyl-1H-indazole-3-carboxamide], the IC50 in assay [1] came to 4.8 nM; in assay [2] (Homo sapiens), 7.6 nM.
In the same order, the values of `[2H]C([2H])([2H])Oc1ncc(-c2ccc3c(C(=O)NC)n[nH]c3c2)cc1C(=O)NC([2H])([2H])c1ccccc1OC(F)(F)F` [Example 16, 6-(6-methoxy D3-5-((2-(trifluoromethoxy)benzyl D2)carbamoyl)pyridin-3-yl)-N-methyl-1H-indazole-3-carboxamide] are 2.2 nM and 8.6 nM.
For `[2H]C([2H])([2H])C([2H])([2H])NC(=O)c1n[nH]c2cc(-c3cnc(OC)c(C(=O)NCc4ccccc4OC(F)(F)F)c3)ccc12` [Example 183, N-[(1,1,2,2,2-deutero)ethyl]-6-[6-methoxy-5-({[2-(trifluoro-methoxy)phenyl]methyl}carbam-oyl)pyridin-3-yl]-1H-indazole-3-carboxamide], in that order: 5.9 nM and 15 nM.
Regarding `CCNC(=O)c1n[nH]c2cc(-c3cnc(OC)c(C(=O)N[C@H](C)c4cc(C(F)(F)F)ccc4F)c3)ccc12` [Example 234, N-[(1,1,2,2,2-deutero)ethyl]-6-(5-{[(1R)-1-[2-fluoro-5-(trifluorometh-yl)phenyl](2,2,2-deutero)ethyl]-carbamoyl}-6-(deutero)methoxy-pyridin-3-yl)-1H-indazole-3-carbox-amide], the IC50 in assay [1] was 8.7 nM; in assay [2], 20 nM.
Turning to `COc1ncc(-c2ccc3c(C(=O)NCCCN4CCCC4=O)n[nH]c3c2)cc1C(=O)NCc1ccccc1OC(F)(F)F` [Example 177, 6-[6-methoxy-5-({[2-(trifluoro-methoxy)phenyl]methyl}-carbamoyl)pyridin-3-yl]-N-[3-(2-oxopyrrolidin-1-yl)propyl]-1H-indazole-3-carboxamide], the IC50 came out at 2.9 nM in assay [1] and 15 nM in assay [2] (Homo sapiens).
On to `CNC(=O)c1n[nH]c2cc(-c3cc(C(=O)NC(C)c4cccc(OC(F)(F)F)c4)c(C)nc3C)ccc12` (single isomer, unassigned) [Example 164, 6-[2,6-dimethyl-5-({1-[3-(trifluoromethoxy)phenyl]-ethyl}carbamoyl)pyridin-3-yl]-N-methyl-1H-indazole-3-carboxamide], for which the IC50 stood at 5.4 nM in assay [1] and 3.7 nM in assay [2].
With `CNC(=O)c1n[nH]c2cc(-c3cnc(OC)c(C(=O)NCC4CCCOC4C(C)(C)C)c3)ccc12` (centres unmarked) [Example 83, 6-(5-{[(2-tert-butyloxan-3-yl)-methyl]carbamoyl}-6-methoxy-pyridin-3-yl)-N-methyl-1H-indazole-3-carboxamide], the figures for the IC50 in assay [1] and in assay [2] (Homo sapiens) were 7.6 nM and 47 nM, respectively.
For the compound `CNC(=O)c1n[nH]c2cc(-c3cnc(OC)c(C(=O)NC4CCCC(C(=O)N(C)C)C4)c3)ccc12` (centres unmarked) [Example 120, 6-(5-{[3-(dimethylcarbam-oyl)cyclohexyl]carbamoyl}-6-methoxypyridin-3-yl)-N-methyl-1H-indazole-3-carbox-amide], the IC50 was 11 nM in assay [1] and 100 nM in assay [2].
For `CNC(=O)c1n[nH]c2cc(-c3cnc(OC)c(C(=O)NCCC(C)c4ccccc4)c3)ccc12` (centres unmarked) [Example 37, 6-{6-methoxy-5-[(3-phenylbutyl)-carbamoyl]pyridin-3-yl}-N-methyl-1H-indazole-3-carbox-amide], in that order: 1.7 nM and 0.3 nM.
For `CNC(=O)c1n[nH]c2cc(-c3cnc(OC)c(C(=O)NC4CCCC(C(=O)N5CCOCC5)C4)c3)ccc12` (centres unmarked) [Example 98, 6-(6-methoxy-5-{[3-(morpho-line-4-carbonyl)cyclohexyl]-carbamoyl}pyridin-3-yl)-N-methyl-1H-indazole-3-carbox-amide], in that order: 26 nM and 46 nM.
Take `[2H]C([2H])([2H])NC(=O)c1n[nH]c2cc(-c3cnc(OC([2H])([2H])[2H])c(C(=O)N[C@H](C)c4cccc(C(F)(F)F)c4)c3)ccc12` [Example 3, (R)-6-(6-(methoxy-d3)-5-((1-(3-(trifluoromethyl)phenyl)ethyl)carbamoyl)pyridin-3-yl)-N-(methyl-d3)-1H-indazole-3-carboxamide]: the IC50 in assay [1] was 46 nM; in assay [2] (Homo sapiens) it was 41 nM.
